Reference: patent US20170166598A1, “HETEROARYL COMPOUNDS FOR KINASE INHIBITION” (ARIAD PHARMACEUTICALS, INC., priority 2014, published 2017)

Columns and labels:
Type in all cases: cell-based
[1] = target: T1, Her2 exon 20 YVMA insertion (A775_G776ins YVMA) (Homo sapiens, UniProt P04626, INS775YVMA); experiment: Ba/F3-Her2 Exon20 YVMA cell anti-proliferative assay (CellTiter 96 MTS, 72 h); conditions: Ba/F3-Her2 Exon20 YVMA cells
T1 construct: expressed in transfected cells; host or cells: Ba/F3 (murine pro-B) cells transduced with lentivirus from pLVX-IRES puro
T1 sequence (P04626 with tags, fused parts or gaps INS775YVMA): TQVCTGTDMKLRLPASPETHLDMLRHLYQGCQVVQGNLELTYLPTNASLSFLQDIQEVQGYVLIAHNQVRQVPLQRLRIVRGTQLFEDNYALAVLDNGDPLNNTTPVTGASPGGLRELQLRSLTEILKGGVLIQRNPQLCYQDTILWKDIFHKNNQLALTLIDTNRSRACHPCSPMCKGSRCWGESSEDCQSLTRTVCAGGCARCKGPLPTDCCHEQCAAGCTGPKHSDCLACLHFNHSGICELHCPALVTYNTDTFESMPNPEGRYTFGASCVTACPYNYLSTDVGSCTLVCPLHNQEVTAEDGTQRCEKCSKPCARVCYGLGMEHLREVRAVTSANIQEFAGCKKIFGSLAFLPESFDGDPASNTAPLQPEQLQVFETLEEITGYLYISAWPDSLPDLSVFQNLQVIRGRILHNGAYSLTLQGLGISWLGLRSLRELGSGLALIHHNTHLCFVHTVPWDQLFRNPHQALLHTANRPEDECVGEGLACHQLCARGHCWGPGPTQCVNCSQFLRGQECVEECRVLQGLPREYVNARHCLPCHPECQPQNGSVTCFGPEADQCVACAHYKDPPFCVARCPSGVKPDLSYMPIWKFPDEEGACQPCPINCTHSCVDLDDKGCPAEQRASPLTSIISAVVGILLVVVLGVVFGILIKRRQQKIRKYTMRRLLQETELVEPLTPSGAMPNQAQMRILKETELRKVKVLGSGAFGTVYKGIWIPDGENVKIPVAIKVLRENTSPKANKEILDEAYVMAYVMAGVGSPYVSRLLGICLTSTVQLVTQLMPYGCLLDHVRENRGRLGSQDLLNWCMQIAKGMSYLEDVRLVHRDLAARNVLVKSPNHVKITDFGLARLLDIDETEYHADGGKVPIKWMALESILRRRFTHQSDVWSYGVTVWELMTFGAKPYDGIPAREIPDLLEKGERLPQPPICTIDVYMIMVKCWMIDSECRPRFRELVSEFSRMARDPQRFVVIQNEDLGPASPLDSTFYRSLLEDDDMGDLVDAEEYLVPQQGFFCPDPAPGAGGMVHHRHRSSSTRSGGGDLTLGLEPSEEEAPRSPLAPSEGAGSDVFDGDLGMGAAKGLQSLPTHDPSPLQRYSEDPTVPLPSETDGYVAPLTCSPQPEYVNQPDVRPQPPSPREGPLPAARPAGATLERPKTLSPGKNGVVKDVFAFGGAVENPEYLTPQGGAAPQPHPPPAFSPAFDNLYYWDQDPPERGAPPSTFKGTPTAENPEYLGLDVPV
From the text: A compound's ability in selectively inhibiting Her2 exon 20 YVMA insertion mutations can be assessed using Ba/F3 cells, a murine pro-B cell line, which have been transduced with Her2 Exon20 YVMA insertions. An expression vector, pLVX-IRES puro (Clontech) coding for […] (A775_G776ins YVMA), was transfected into HEK293 cells by the Trans-Lentiviral ORF Packaging System (Thermo Scientific), to produce virus encoding EGFR exon 20 insertions. Ba/F3 (DSMZ) cells maintained in RPMI 1640 medium supplemented with 10% fetal bovine serum, 200 μM L-glutamine/200 μg/mL penicillin/200 μg/mL streptomycin (Life Technology) and 10 ng/mL IL-3 (R&D system), were infected by EGFR Exon20 virus and subsequently selected by puromycin (Life Technology) selection and IL-3 depletion. Ba/F3 cells expressing Her2 Exon20 YVMA insertions (named Ba/F3-Her2 Exon20 YVMA) can proliferate in the absence of IL-3. The anti-proliferative activity of compounds was determined as follows: BaF3-Her2 Exon20 YVMA cells seeded in 96 well plates (2500 cells/well) were treated with test compound (dissolved in DMSO) at a series of concentrations (4-fold dilution, top concentration: 10,000 nM). The plates were incubated for 72 h in a 37° C. incubator with 5% CO2, and the number of viable cells in each well were measured indirectly by CellTiter 96@ Aqueous One Solution Cell Proliferation Assay (Promega; this assay is a colorimetric method for determining the number of viable cells through measurement of their metabolic activity by detection of enzymatic conversion of tetrazolium salts into blue formazan derivatives). Reagent (20 μL) was added into each well, and the plates were returned to the incubator for 2 h. The absorbance in each well was then measured at 490 nm using an Envision plate reader (Perkin Elmer).

[2] = target: T2, human EGFR E746-A750 deletion and T790M Mutation (Homo sapiens, UniProt P00533, DEL746-750/T790M); experiment: Ba/F3-EGFR-Del/T790M cell anti-proliferative assay (CellTiter 96 MTS, 72 h); conditions: Ba/F3-EGFR-Del/T790M cells
T2 construct: expressed in transfected cells; host or cells: Ba/F3 (murine pro-B) cells transduced with lentivirus from pLVX-IRES puro
T2 sequence (P00533 with tags, fused parts or gaps DEL746-750/T790M): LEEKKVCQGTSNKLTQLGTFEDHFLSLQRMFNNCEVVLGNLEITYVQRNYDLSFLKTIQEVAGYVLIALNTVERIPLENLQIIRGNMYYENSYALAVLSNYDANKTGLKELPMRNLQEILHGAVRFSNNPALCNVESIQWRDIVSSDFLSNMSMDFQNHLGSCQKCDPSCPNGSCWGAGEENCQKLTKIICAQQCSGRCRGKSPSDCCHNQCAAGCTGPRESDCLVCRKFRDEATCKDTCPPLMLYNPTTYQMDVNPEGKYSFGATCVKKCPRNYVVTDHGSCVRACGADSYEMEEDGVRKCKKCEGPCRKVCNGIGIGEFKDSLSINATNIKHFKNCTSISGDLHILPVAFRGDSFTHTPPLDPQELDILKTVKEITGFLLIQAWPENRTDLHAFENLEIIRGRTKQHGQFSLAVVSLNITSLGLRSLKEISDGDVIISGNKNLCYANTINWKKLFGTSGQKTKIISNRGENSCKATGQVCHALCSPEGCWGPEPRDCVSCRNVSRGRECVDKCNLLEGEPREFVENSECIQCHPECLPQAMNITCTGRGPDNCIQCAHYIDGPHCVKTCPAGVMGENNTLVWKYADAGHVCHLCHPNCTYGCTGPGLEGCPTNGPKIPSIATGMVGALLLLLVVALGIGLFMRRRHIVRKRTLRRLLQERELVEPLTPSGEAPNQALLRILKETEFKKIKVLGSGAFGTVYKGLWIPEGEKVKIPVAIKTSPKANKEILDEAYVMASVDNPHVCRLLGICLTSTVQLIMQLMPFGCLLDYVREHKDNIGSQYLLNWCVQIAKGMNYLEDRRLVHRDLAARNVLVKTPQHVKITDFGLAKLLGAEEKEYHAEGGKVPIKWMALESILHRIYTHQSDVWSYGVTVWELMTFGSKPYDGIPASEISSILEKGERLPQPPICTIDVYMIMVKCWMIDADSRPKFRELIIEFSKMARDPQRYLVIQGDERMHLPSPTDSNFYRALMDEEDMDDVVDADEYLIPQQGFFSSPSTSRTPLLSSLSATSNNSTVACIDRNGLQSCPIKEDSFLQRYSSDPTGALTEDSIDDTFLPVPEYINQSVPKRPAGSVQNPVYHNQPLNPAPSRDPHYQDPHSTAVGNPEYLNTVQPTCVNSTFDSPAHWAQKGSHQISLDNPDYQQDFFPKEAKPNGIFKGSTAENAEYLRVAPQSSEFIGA
Description: An expression vector, pLVX-IRES puro (Clontech) coding for human EGFR E746-A750 deletion and T790M Mutation, was transfected into HEK293 cells by the Trans-Lentiviral ORF Packaging System (Thermo Scientific), to produce virus encoding EGFR exon 19 deletion and T790M mutations. Ba/F3 (DSMZ) cells maintained in RPMI 1640 medium supplemented with 10% fetal bovine serum, 200 μM L-glutamine/200 μg/mL penicillin/200 μg/mL streptomycin (Life Technology) and 10 ng/mL IL-3 (R&D system), were infected by EGFR E746-A750 deletion and T790M Mutation virus and subsequently selected by puromycin (Life Technology) selection and IL-3 depletion. […] The anti-proliferative activity of compounds was determined as follows: BaF3-EGFR-Del/T790M cells seeded in 96 well plates (2500 cells/well) were treated with test compound (dissolved in DMSO) at a series of concentrations (4-fold dilution, top concentration: 10,000 nM). The plates were incubated for 72 h in a 37° C. incubator with 5% CO2, and the number of viable cells in each well were measured indirectly by CellTiter 96® Aqueous One Solution Cell Proliferation Assay (Promega; this assay is a colorimetric method for determining the number of viable cells through measurement of their metabolic activity by detection of enzymatic conversion of tetrazolium salts into blue formazan derivatives). Reagent (20 μL) was added into each well, and the plates were returned to the incubator for 2 h. The absorbance in each well was then measured at 490 nm using an Envision plate reader (Perkin Elmer).

[3] = target: T3, human EGFR exon 20 insertion NPG (H773_V774insNPG) (Homo sapiens, UniProt P00533, INS772GNP); experiment: Ba/F3-EGFR-Exon20-NPG cell anti-proliferative assay (CellTiter 96 MTS, 72 h); conditions: Ba/F3-EGFR-Exon20-NPG cells
T3 construct: expressed in transfected cells; host or cells: Ba/F3 (murine pro-B) cells transduced with lentivirus from pLVX-IRES puro
T3 sequence (P00533 with tags, fused parts or gaps INS772GNP): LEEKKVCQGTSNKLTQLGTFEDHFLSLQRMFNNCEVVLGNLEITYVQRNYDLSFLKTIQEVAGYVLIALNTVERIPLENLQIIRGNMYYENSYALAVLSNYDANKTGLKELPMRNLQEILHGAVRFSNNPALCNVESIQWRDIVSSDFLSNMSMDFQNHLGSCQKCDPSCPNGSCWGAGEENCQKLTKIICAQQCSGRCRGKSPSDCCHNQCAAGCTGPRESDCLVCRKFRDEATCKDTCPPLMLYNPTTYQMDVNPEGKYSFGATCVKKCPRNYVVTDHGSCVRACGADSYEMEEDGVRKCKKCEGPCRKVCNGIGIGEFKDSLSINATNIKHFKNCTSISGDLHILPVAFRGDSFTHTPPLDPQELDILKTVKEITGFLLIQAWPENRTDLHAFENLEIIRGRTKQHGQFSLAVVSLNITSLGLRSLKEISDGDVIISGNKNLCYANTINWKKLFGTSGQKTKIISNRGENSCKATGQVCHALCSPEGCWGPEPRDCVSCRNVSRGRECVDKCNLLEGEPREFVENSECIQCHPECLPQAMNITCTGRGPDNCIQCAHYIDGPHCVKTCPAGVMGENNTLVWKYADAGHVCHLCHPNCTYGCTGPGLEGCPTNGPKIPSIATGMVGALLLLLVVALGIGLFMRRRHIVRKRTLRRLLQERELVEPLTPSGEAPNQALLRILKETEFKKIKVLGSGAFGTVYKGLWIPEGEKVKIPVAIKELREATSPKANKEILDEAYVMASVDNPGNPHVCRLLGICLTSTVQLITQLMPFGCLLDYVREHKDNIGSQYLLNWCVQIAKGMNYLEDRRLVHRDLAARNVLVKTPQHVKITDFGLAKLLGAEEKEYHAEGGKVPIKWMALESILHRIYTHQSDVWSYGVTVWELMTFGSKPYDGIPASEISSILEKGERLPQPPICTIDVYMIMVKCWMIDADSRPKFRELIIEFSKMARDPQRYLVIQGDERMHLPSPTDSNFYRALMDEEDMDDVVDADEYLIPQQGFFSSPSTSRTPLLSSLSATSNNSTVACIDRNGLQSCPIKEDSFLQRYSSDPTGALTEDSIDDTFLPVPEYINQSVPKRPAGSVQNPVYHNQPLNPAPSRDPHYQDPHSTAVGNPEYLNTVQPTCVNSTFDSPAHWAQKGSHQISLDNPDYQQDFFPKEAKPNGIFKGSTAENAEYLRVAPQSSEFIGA
Description: An expression vector, pLVX-IRES puro (Clontech) coding for human EGFR exon 20 insertions NPG (H773_V774insNPG) or ASV (V769_D770insASV), was transfected into HEK293 cells by the Trans-Lentiviral ORF Packaging System (Thermo Scientific), to produce virus encoding EGFR exon 20 insertions. Ba/F3 (DSMZ) cells maintained in RPMI 1640 medium supplemented with 10% fetal bovine serum, 200 μM L-glutamine/l 200 μg/mL penicillin/200 μg/mL streptomycin (Life Technology) and 10 ng/mL IL-3 (R&D system), were infected by EGFR Exon20 virus and subsequently selected by puromycin (Life Technology) selection and IL-3 depletion. […] The anti-proliferative activity of compounds were determined as follows: BaF3-EGFR-Exon20 cells (NPG or ASV) seeded in 96 well plates (2500 cells/well) were treated with test compound (dissolved in DMSO) at a series of concentrations (4-fold dilution, top concentration: 10,000 nM). The plates were incubated for 72 h in a 37° C. incubator with 5% CO2, and the number of viable cells in each well were measured indirectly by CellTiter 96® Aqueous One Solution Cell Proliferation Assay (Promega) This assay is a colorimetric method for determining the number of viable cells through measurement of their metabolic activity by detection of enzymatic conversion of tetrazolium salts into blue formazan derivatives. Reagent (20 μL) was added into each well, and the plates were returned to the incubator for 2 h. The absorbance in each well was then measured at 490 nm using an Envision plate reader (Perkin Elmer).

With `C=CC(=O)Nc1cc(Nc2ncc(CC)c(-c3cn4c5c(cccc35)CCC4)n2)c(OC)cc1N1CCN(C(C)=O)CC1` [Example 3, N-(2-(4-acetylpiperazin-1-yl)-5-((4-(5,6-dihydro-4H-pyrrolo[3,2,1-ij]quinolin-1-yl)-5-ethylpyrimidin-2-yl)amino)-4-methoxyphenyl)acrylamide] the IC50 [1] was over 1000 nM, the “EGFR exon 19 deletion and exon 20 T790M mutation IC50” value [2] was “B (IC50 value for the indicated mutant between about 100 to about 500 nM)” and the IC50 [3] was over 1000 nM.

For `C=CC(=O)Nc1cc(Nc2ncc(Cl)c(-c3cn4c5c(cccc35)CCC4)n2)c(C)cc1N(C)CCN(C)C` [Example 13, N-(5-((5-chloro-4-(5,6-dihydro-4H-pyrrolo[3,2,1-ij]quinolin-1-yl)pyrimidin-2-yl)amino)-2-((2-(dimethylamino)ethyl)(methyl)amino)-4-methylphenyl)acrylamide], the IC50 [1] was 100 to 500 nM, the “EGFR exon 19 deletion and exon 20 T790M mutation IC50” value [2] was “A (IC50 value for the indicated mutant below about 100 nM)” and the IC50 [3] was under 100 nM.

With `C=CC(=O)Nc1cc(Nc2ncc(Cl)c(-c3cn4c5c(cccc35)CCC4)n2)c(OC)cc1OCCN1CCCC1` [Example 20] the IC50 [1] was 500 to 1000 nM, the “EGFR exon 19 deletion and exon 20 T790M mutation IC50” value [2] was “A (IC50 value for the indicated mutant below about 100 nM)” and the IC50 [3] was 100 to 500 nM.

In the case of `C=CC(=O)Nc1cc(Nc2ncc(Cl)c(-c3cn4c5c(cccc35)CCC4)n2)c(OC)cc1OCCN1CCN(C)CC1` [Example 21, N-(5-((5-chloro-4-(5,6-dihydro-4H-pyrrolo[3,2,1-ij]quinolin-1-yl)pyrimidin-2-yl)amino)-4-methoxy-2-(2-(4-methylpiperazin-1-yl)ethoxy)phenyl)acrylamide], the IC50 [1] is reported as over 1000 nM, the “EGFR exon 19 deletion and exon 20 T790M mutation IC50” value [2] is reported as “A (IC50 value for the indicated mutant below about 100 nM)” and the IC50 [3] is reported as 100 to 500 nM.

For `C=CC(=O)Nc1cc(Nc2ncc(Cl)c(-c3cn4c5c(cccc35)CCC4)n2)c(OC)cc1OCCN1CCOCC1` [Example 22, N-(5-((5-chloro-4-(5,6-dihydro-4H-pyrrolo[3,2,1-ij]quinolin-1-yl)pyrimidin-2-yl)amino)-4-methoxy-2-(2-morpholinoethoxy)phenyl)acrylamide], the IC50 [1] was over 1000 nM, the “EGFR exon 19 deletion and exon 20 T790M mutation IC50” value [2] was “A (IC50 value for the indicated mutant below about 100 nM)” and the IC50 [3] was 100 to 500 nM.

`C=CC(=O)Nc1cc(Nc2ncc(Cl)c(-c3cn4c5c(cccc35)CCC4)n2)c(OC)cc1N(C)CCN1CCCC1` [Example 24, N-(5-((5-chloro-4-(5,6-dihydro-4H-pyrrolo[3,2,1-ij]quinolin-1-yl)pyrimidin-2-yl)amino)-4-methoxy-2-(methyl(2-(pyrrolidin-1-yl)ethyl)amino)phenyl)acrylamide] was tested, and the IC50 [1] was 100 to 500 nM, the “EGFR exon 19 deletion and exon 20 T790M mutation IC50” value [2] was “A (IC50 value for the indicated mutant below about 100 nM)” and the IC50 [3] was under 100 nM.

For `C=CC(=O)Nc1cc(Nc2ncc(Cl)c(-c3cn4c5c(cccc35)CCC4)n2)c(OC)cc1N(C)CCN1CCN(C)CC1` [Example 25, N-(5-((5-chloro-4-(5,6-dihydro-4H-pyrrolo[3,2,1-ij]quinolin-1-yl)pyrimidin-2-yl)amino)-4-methoxy-2-(methyl(2-(4-methylpiperazin-1-yl)ethyl)amino)phenyl)acrylamide], the IC50 [1] was over 1000 nM, the “EGFR exon 19 deletion and exon 20 T790M mutation IC50” value [2] was “A (IC50 value for the indicated mutant below about 100 nM)” and the IC50 [3] was 100 to 500 nM.

Work on `C=CC(=O)Nc1cc(Nc2nccc(-c3cn4c5c(cccc35)OCC4)n2)c(OC)cc1N(C)CCN(C)C` [Example 77, N-(5-((4-(2,3-dihydro-[1,4]oxazino[2,3,4-hi]indol-6-yl)pyrimidin-2-yl)amino)-2-((2-(dimethylamino)ethyl)(methyl)amino)-4-methoxyphenyl)acrylamide] yielded an IC50 [1] of 100 to 500 nM.
